Results: patent US20250034186A1, “ANTIVIRAL COMPOUNDS” (priority 2020, published 2025)

Columns and labels:
NHBE cytotoxicity assay = type: cell-based; conditions: human, normal bronchial epithelial (NHBE) cells
Protocol: Normal human bronchial epithelial (NHBE) cells were purchased from Lonza (Walkersville, MD, Cat #CC-2540) and cultured in Bronchial Epithelial Growth Media (BEGM) (Lonza, Walkersville, MD, Cat #CC-3170). The cells were passaged 1-2 times per week to maintain <80% confluency per manufacturer's protocol. The NHBE cells were discarded after 5 passages in culture.
Following attachment, 3-fold serially diluted compound was added using a Hewlett-Packard D300 Digital Dispenser (Hewlett Packard, Palo Alto, CA) in triplicate. The final concentration of DMSO was normalized to 1.0%. Following compound addition, NHBE or SAEC cells were incubated at 37° C. for 5 days. The NHBE or SAEC cells were then allowed to equilibrate to 25° C. and cell viability was determined by removing 100 μL of culture medium and adding 100 μL of Cell-Titer Glo viability reagent (Promega, Madison, WI). The mixtures were incubated for 10 minutes at 25° C., and the luminescence signal was quantified on an Envision luminescence plate reader (PerkinElmer, Waltham, MA). Percent viability values were determined by normalization to 1.0% DMSO-only control wells with background luminescent signal subtracted out.

HRVc15 replicon = assay: HRVc15 HeLa replicon EC50; type: cell-based, human rhinovirus; conditions: for EC50: Human rhinovirus sp., HRV15, HRVc15 replicon in H1-HeLa cells, 48 hrs, luciferase, read-out: HRV15 Rep EC50
Protocol: First, HRV replicon RNA is prepared. 5 μg of DNA Template (HRVc15 or HRVc25) is linearized with 2 μL of MluI enzyme in NEB buffer-3 in a final volume of 25 μL for 3 hours at 37° C. Following incubation, linearized DNA is purified on a PCR purification column and the following in vitro transcription is performed using the following conditions: 10 μL of RiboMAX Express T7 2× buffer, 1-8 μL of linear DNA template (1 μg), 0-7 μL nuclease free water, 2 μL enzyme mix T7 express. The final volume of 20 μL is mixed and incubated at 37° C. for 30 min. Following incubation, 1 μL of RQ1 RNase free DNase is added and the mixture is incubated at 37° C. for 15 min. The resulting RNA is then purified with the MegaClear Kit (Gibco Life Technologies Cat #11835-030) and is eluted two times with 50 μL of elution buffer at 95° C. H1-HeLa cells cultured in complete RPMI 1640 media containing 10% heat-inactivated FBS and 1% Penicillin/Streptomycin are seeded into T-225 flasks at a concentration of 2E6 cells/flask a day prior to transfection and are incubated at 37° C./5% CO2 overnight. On the day of transfection, cells are trypsinized following standard cell culture protocols and are washed two times with PBS. Following washes, cells are resuspended at a concentration of 1E7 cells/mL in PBS and the suspension is stored on wet ice. Electroporation is used to introduce replicon RNA into the H1-HeLa cells. A final volume of 10 μL containing 10 μg of replicon c15 or 1 μg of c25 replicon RNA, respectively, are pipetted into a 4 mm electroporation cuvette. The H1-HeLa cell stock is mixed by gently swirling and 0.5 mL of the cell stock previously prepared is transferred into the cuvette containing the replicon RNA. The combined solution is flicked to mix. Following mixing, cells are immediately electroporated using the following settings: 900V, 25 uF, infinite resistance, 1 pulse. Cuvettes are rested on ice for 10 min. Following the 10 min incubation, add 19 mL of ambient temperature, phenol red-free and antibiotic-free RPMI 1640 containing 10% heat-inactivated FBS per electroporation. 150 μL (4E4 cells) of the electroporated cell suspension are seeded per well into a 96 well clear-bottom, white cell culture plate, and are incubated at 25° C. for 30 min. […] Replicon activity is then measured by a Renilla-Glo Luciferase Assay system. Prior to signal quantification, plates are removed from incubators and are allowed to equilibrate to 25° C. after 50 uL is removed from each well. […] Plates are then incubated for 20 min at 25° C. under gentle agitation and luciferase signal are determined with a 0.1 second detection setting using an EnVision luciferase quantification reader.

in vitro = type: cell-based; conditions: human, read-out: CC50 GALPC3
Protocol: Compounds were tested in a high-throughput 384-well assay format for cytotoxicity in galactose-adapted PC3 cells (human prostate cancer cell line). Cells were diluted in media (DMEM (11966), 10% FBS, 1% NEAA, 0.2% Galactose, 1% Pyruvate, 1% Glutamax, 1% PSG) to 16.6K cells/mL and plated at 90 uL/well into 384 well poly-D-lysine coated assay plates and placed in an incubator at 37° C. and 5% CO2. Compounds were serially diluted (1:3) in 100% DMSO in 384-well plates in quadruplicate. DMSO and 2 mM Puromycin were included as negative and positive controls respectively. 24 hours after cell plating, a 384 channel pipettor was used to transfer 0.4 uL from the compound plate to the assay plate. Assay plates are returned to the incubator. After 5 days, assay plates are washed with 80 uL/well of PBS before addition of 20 μL of Cell Titer Glo. Assay plates are read on the Envision plate reader. […] CC50 values were calculated in Accord (on-line tool) using a one-site dose-response model to generate sigmoidal curve fits.

CCOC(=O)[C@H](C)NP(=O)(OC[C@@]1(C#N)O[C@@H](c2ccc3c(N)ncnn23)[C@H](O)[C@@H]1O)Oc1ccccc1 (stereo partly shown) [Compound 1, reference compound]
CC50 at 5 days (NHBE cytotoxicity assay): > 50 µM

CCC(CC)COC(=O)[C@H](C)NP(=O)(OC[C@@]1(C#N)O[C@@H](c2ccc3c(N)ncnn23)[C@H](O)[C@@H]1O)Oc1ccccc1 (stereo partly shown) [Compound 2, reference compound]
EC50 (HRVc15 replicon): 0.021 µM
CC50 at 5 days (NHBE cytotoxicity assay): 29.1 µM

CCC(CC)COC(=O)[C@H](C)N[P@](=O)(OC[C@@]1(C#N)O[C@@H](c2ccc3c(N)ncnn23)[C@H](O)[C@@H]1O)Oc1ccccc1 [Compound 6, 2-ethylbutyl ((S)-(((2R,3S,4R,5S)-5-(4-aminopyrrolo[2,1-f][1,2,4]triazin-7-yl)-2-cyano-3,4-dihydroxytetrahydrofuran-2-yl)methoxy)(phenoxy)phosphoryl)alaninate]
EC50 (HRVc15 replicon): 0.017 µM
CC50 at 5 days (NHBE cytotoxicity assay): 24.4 µM
CC50 at 5 days (in vitro): > 83.5 µM

C[C@H](N[P@](=O)(OC[C@@]1(C#N)O[C@@H](c2ccc3c(N)ncnn23)[C@H](O)[C@@H]1O)Oc1ccccc1)C(=O)OC1CCCCC1 [Formula I, cyclohexyl ((S)-(((2R,3S,4R,5S)-5-(4-aminopyrrolo[2,1-f][1,2,4]triazin-7-yl)-2-cyano-3,4-dihydroxytetrahydrofuran-2-yl)methoxy)(phenoxy)phosphoryl)-L-alaninate]
times more potent compared to compound 2, HRV15 Rep (HRVc15 replicon; EC50 ratio vs compound 2): about 2.3 times
EC50 (HRVc15 replicon): 0.009 µM
CC50 at 5 days (NHBE cytotoxicity assay): > 40.1 µM
CC50 at 5 days (in vitro): > 44.4 µM
